Test results reported in PMC5078090, “In vivo screening and discovery of novel candidate thalidomide analogs in the zebrafish embryo and chicken embryo model systems” (Oncotarget, 2016).
Entries after “also recorded” stand apart in the source; their conditions may differ.

Assays:
[1] = tested on: fli1:EGFP zebrafish embryos; assay: fli1:EGFP zebrafish embryo angiogenesis assay (intersegmental vessel outgrowth and number); assay type: in vivo; conditions: for Anti-angiogenic activity (loss of ISVs or inhibition of ISV outgrowth): fli1:EGFP embryos, 24 h incubation, result in words; for minimal effective concentration: Danio rerio, 24 h, 24 hpf embryos exposed 24 h, screened 1-200 μg/mL, where no activity was seen the concentration shown is the lowest screened
Procedure: To determine if our novel thalidomide analogs (Figure 1) had any effect on in vivo angiogenesis, we used fli1:EGFP embryos which express green fluorescent protein (GFP) on endothelial cells throughout development. Embryos were allowed to develop for 24 hours, then exposed to either vehicle or a compound of interest at the concentration range of 1 to 200 μg/mL. During this time the vasculature is rapidly expanding and developing new, naive intersegmental vessels (ISVs). The embryos were imaged after 24 hours of incubation with the drug (Figure 2A). […] We also observed that the potency of each compound varied.
Figure 2 The effect of novel thalidomide analogs on vessel length fli1:EGFP zebrafish were incubated with vehicle or compounds for 24 hours, at which point vessel outgrowth and number were measured. A. Images of zebrafish exposed to the vehicle or test compounds. […] Treatment with C4 (1.5 μg/mL), C18 (50 μg/mL), C81 (50 μg/mL), C82 (5 μg/mL), C83 (20 μg/mL) and C84 (50 μg/mL) show reduction in vessel out growth (white arrow) and in some cases loss of vessel (white asterisks). B. Stalk length & C. stalk number are reduced. Compounds are shown at the lowest concentration producing an effect. The data represent the mean + the standard error of the mean.
Zebrafish embryos were treated with analogs as previously described. Briefly, fli1:EGFP embryos were collected and embryos were allowed to develop for 24 hours. Embryos were dechorionated manually and exposed to test compounds or vehicle control (0.1% DMSO) for a further 24 hours. Embryos were anesthetized with 0.05% MS222 (Tricaine) (Sigma Aldrich) and live visualization of blood vessels was carried out.
(§1) A broad series of novel thalidomide-based compounds were chemically synthesized (WL, NHG and WDF, NIH), dissolved in DMSO, stored in stock concentrations between 10-100 mg/mL, and used at a final working DMSO concentration of 0.1%. The chemical structures of lead compounds of interest were confirmed by chemical characterization (purity >99.5%). Compounds were screened across a range of concentrations from 1-200 μg/mL to determine the lowest effective concentration.

chicken embryos = assay: In ovo chicken embryo teratogenicity assay; assay type: in vivo, white leghorn chicken; conditions: for Damage observed: HH stage 17-18 chicken embryos, 100 μg/mL; for Lowest effective concentration, Chicken assay: HH stage 17-18 embryos, where no activity was seen the concentration shown is the lowest screened; for Teratogenicity in these assays: chicken and zebrafish embryo assays together, result in words
Procedure: Compounds of interest were screened in chicken and/or zebrafish embryos (Figure 4), to determine if these compounds are teratogenic. The chicken embryo is well established as a model to determine the action of compounds upon development.
Fertilized white leghorn chicken embryos were incubated at 38°C and staged according to the Hamburger and Hamilton (HH) stages of development. Embryos were tested at HH stage 17-18 (day 2.5). Following membrane removal test compounds or vehicle control solutions were applied over the embryo. The eggs were sealed and the development of the embryos was monitored up to HH stage 30 (E9). A minimum of 3 embryos were used per concentration, per drug.

WT Zebrafish = assay: WT zebrafish embryo developmental defect (teratogenicity) screen; assay type: in vivo; conditions: for Eye development / eye diameter in zebrafish embryos / Pectoral fin development / fin length in zebrafish embryos: Figure 4, result in words; for Lowest effective concentration, WT Zebrafish assay: screened 1-200 μg/mL, where no activity was seen the concentration shown is the lowest screened
[2] = tested on: Tg(MPO::EGFP)^114 zebrafish; assay: Tg(MPO::EGFP)^114 zebrafish tail fin clip assay of neutrophil migration to the wound site; assay type: in vivo; conditions: for minimal effective concentration: Danio rerio, Neutrophil, fin clipped at 72 hpf, imaged at 24 h, screened 1-200 μg/mL, where no activity was seen the concentration shown is the lowest screened; for Effect on neutrophil migration to the wound site (anti-inflammatory activity): fin clipped 72 hpf embryos, result in words
From the text: To assess the immunomodulatory effects of the thalidomide analogs across the concentration range used in the previous assay, the transgenic zebrafish line Tg(MPO::EGFP)^114 was used. These embryos express GFP tagged myeloperoxidase, marking neutrophils during the inflammatory response, for example following injury. […] This allowed us to subsequently assess the anti-inflammatory activity of each compound by immersing embryos in the test drug or vehicle. The embryos were examined for migration of neutrophils to the wound site. In comparison to control embryos (Figure 3A) compounds with anti-inflammatory properties had reduction of at least 50% of neutrophils recruited to the wound site (Figure 3). […] We also screened the previously identified six anti-angiogenic compounds of interest in the Tg(MPO::EGFP)^114 line.
Figure 3 The effect of thalidomide analogs on the inflammatory response to wound healing A. Zebrafish (72 hpf) embryos transgenic for a fluorescently tagged neutrophil marker Tg(MPO::EGFP)^114 were fin clipped to induce an inflammatory response and exposed to vehicle or a test compound. Broken line indicates the tail fin with cut and area of the wound site. […] The data represent the mean + the standard error of the mean.
Tg(MPO::EGFP)^114 embryos were tail fin clipped as previously detailed and incubated with test compounds or vehicle control at 72 hpf. Fish were imaged at 24 hours and the number of migratory neutrophils present at the wound site were counted. Compounds inducing an at least 50% reduction of neutrophils to the wound site were considered to have anti-inflammatory properties in this system. All larvae were assessed for viability and morphological integrity. A minimum of 10 embryos were used per concentration per drug. Error bars represent standard error of the mean.
as §1

[3] = applied at HH stage 17-18, result in words

Row | SMILES | Anti-angiogenic activity (loss of ISVs or inhibition of ISV outgrowth) [1] | Damage observed (chicken embryos) | Lowest effective concentration, Chicken assay (chicken embryos) | Defects in chicken embryo development (text and figure legend) (chicken embryos; [3]) | minimal effective concentration [1] | Lowest effective anti-angiogenic concentration, fli1:EGFP assay (molar) ([1]; inhibition of vessel outgrowth and number, 24 h exposure) | Eye development / eye diameter in zebrafish embryos (WT Zebrafish) | Pectoral fin development / fin length in zebrafish embryos (WT Zebrafish) | Lowest effective concentration, WT Zebrafish assay (WT Zebrafish) | minimal effective concentration [2] | Teratogenicity in these assays (chicken embryos) | Effect on neutrophil migration to the wound site (anti-inflammatory activity) [2] | Defects in chicken embryo development (text and figure legend) (chicken embryos; in vivo)
1 | O=C1c2c(F)c(F)c(F)c(F)c2C(=O)N1c1ccc(F)cc1F [CPS49, reference compound] | reduction in vessel outgrowth (white arrow), loss of vascular connectivity and a decrease in the number of forming blood vessels | – | – | – | – | – | – | – | – | – | – | – | –
2 | O=C1c2ccccc2C(=S)N1C1CCC(=S)NC1=S (stereo not shown) [Compound C4] | anti-angiogenic activity | Necrotic YSM, hemorrhaging | 100 µg/mL | hemorrhaging; also recorded: abnormal blood vessels and necrotic-like regions in the surrounding yolk sac membrane | 1.5 to 100 µg/mL | 4.9 µM | microopthalmia; also recorded: reductions in eye diameter | malformation in fin development | 10 µg/mL | 10 µg/mL | – | – | –
3 | O=C1NC(=S)CCC1N1C(=O)c2cccc([N+](=O)[O-])c2C1=O (stereo not shown) [Compound C7] | without anti-angiogenic activities | – | 100 µg/mL | no effect | 10 µg/mL | – | – | – | 10 µg/mL | 10 µg/mL | non-teratogenic | reduced neutrophil migration | –
4 | CC(=O)Oc1ccc2c(c1)C(=O)N(C1CCC(=O)NC1=O)C2=O (stereo not shown) [Compound C18] | anti-angiogenic activity | Necrotic YSM, stunted growth | 100 µg/mL | reduced body size compared to control embryos; also recorded: abnormal blood vessels and necrotic-like regions in the surrounding yolk sac membrane | – | – | reductions in eye diameter | reductions | 50 µg/mL | 50 µg/mL | – | significantly reduce neutrophil migration | –
5 | Nc1ccc2c(c1)OC(=O)C(C1CCC(=O)NC1=O)C2=O (stereo not shown) [Compound C24] | – | Necrotic YSM, hemorrhaging | 100 µg/mL | abnormal blood vessels and necrotic-like regions in the surrounding yolk sac membrane; also recorded: hemorrhaging and necrotic-like damage in the YSM; also recorded: twisted spinal cords, necrotic-like damage in the YSM and high death rates | 50 µg/mL | – | – | – | 50 µg/mL | 50 µg/mL | – | reduced neutrophil migration | –
6 | Nc1cccc2c1CN(C1CCC(=O)NC1=O)C2=S (stereo not shown) [Compound C29] | – | Twisted spines, hemorrhaging | 100 µg/mL | hemorrhaging and necrotic-like damage in the YSM | 10 µg/mL | – | – | – | – | 5 µg/mL | – | reduced neutrophil migration | twisted spinal cords, necrotic-like damage in the YSM and high death rates
7 | O=C1c2ccccc2CN1C12CC3CC(CC(O)(C3)C1)C2 [Compound C86] | without anti-angiogenic activities | – | 100 µg/mL | no effect | 10 µg/mL | – | – | – | – | 100 µg/mL | non-teratogenic | reduced neutrophil migration | –
